In US20040063662A1, “Selenophene anti-tumor agents” (priority 1996, published 2004):

Legend:
[1] = test system: K-562; assay: NCI human tumor cell panel: K-562 (Leukemia); type: cell-based
[2] = test system: MOLT-4; assay: NCI human tumor cell panel: MOLT-4 (Leukemia); type: cell-based
[3] = test system: A549/ATCC; assay: NCI human tumor cell panel: A549/ATCC (Non-Small Cell Lung Cancer); type: cell-based
[4] = test system: EKVX; assay: NCI human tumor cell panel: EKVX (Non-Small Cell Lung Cancer); type: cell-based
[5] = test system: NCI-H322M; assay: cells; type: cell-based; conditions: Homo sapiens, read-out: Log10 TGI (converted)
[6] = test system: COLO 205; assay: NCI human tumor cell panel: COLO 205 (Colon Cancer); type: cell-based
[7] = test system: HCC-2998; assay: NCI human tumor cell panel: HCC-2998 (Colon Cancer); type: cell-based
[8] = test system: HCT-116; assay: NCI human tumor cell panel: HCT-116 (Colon Cancer); type: cell-based
[9] = test system: HCT-15; assay: NCI human tumor cell panel: HCT-15 (Colon Cancer); type: cell-based
[10] = test system: HT29; assay: NCI human tumor cell panel: HT29 (Colon Cancer); type: cell-based
[11] = test system: KM12; assay: NCI human tumor cell panel: KM12 (Colon Cancer); type: cell-based
[12] = test system: SNB-19; assay: NCI human tumor cell panel: SNB-19 (CNS Cancer); type: cell-based
[13] = test system: U251; assay: NCI human tumor cell panel: U251 (CNS Cancer); type: cell-based
[14] = test system: MALME-3M; assay: NCI human tumor cell panel: MALME-3M (Melanoma); type: cell-based; conditions: Malme-3M
[15] = test system: SK-MEL-28; assay: NCI human tumor cell panel: SK-MEL-28 (Melanoma); type: cell-based
[16] = test system: OVCAR-3; assay: NCI human tumor cell panel: OVCAR-3 (Ovarian Cancer); type: cell-based
[17] = test system: SK-OV-3; assay: NCI human tumor cell panel: SK-OV-3 (Ovarian Cancer); type: cell-based
[18] = test system: ACHN; assay: NCI human tumor cell panel: ACHN (Renal Cancer); type: cell-based
[19] = test system: CAKI-1; assay: NCI human tumor cell panel: CAKI-1 (Renal Cancer); type: cell-based
[20] = test system: TK-10; assay: NCI human tumor cell panel: TK-10 (Renal Cancer); type: cell-based
[21] = test system: PC-3; assay: NCI human tumor cell panel: PC-3 (Prostate Cancer); type: cell-based
[22] = test system: MDA-MB-231/ATCC; assay: NCI human tumor cell panel: MDA-MB-231/ATCC (Breast Cancer); type: cell-based; conditions: Homo sapiens, MDA-MB-231, MDA-MB-231/ATCC
[23] = test system: T-47D; assay: NCI human tumor cell panel: T-47D (Breast Cancer); type: cell-based; conditions: T47D
[24] = test system: NCI-H522; assay: NCI human tumor cell panel: NCI-H522 (Non-Small Cell Lung Cancer)
[25] = test system: panel of sixty different human tumor cell lines; assay: NCI human tumor cell panel: whole panel (mean graph summary)
[26] = read-out: Log10 GI50 (converted)
[27] = read-out: Log10 TGI (converted)

OCc1ccc(-c2ccc(-c3ccc(CO)[se]3)s2)s1 [compound 688830]
GI50 ([1]; K562, K-562, read-out: Log10 GI50 (converted)): 0.0724 µM
IC (TGI) ([1]; K562, K-562, read-out: Log10 TGI (converted)): 17.4 µM
GI50 ([2]; MOLT-4, read-out: Log10 GI50 (converted)): 38.9 µM
IC (TGI) ([2]; MOLT-4, read-out: Log10 TGI (converted)): > 100 µM
GI50 [3, 26]: 6.03 µM
IC (TGI) [3, 27]: 33.1 µM
GI50 [4, 26]: 19.5 µM
IC (TGI) [4, 27]: 66.1 µM
IC (TGI) [5]: 20 µM
GI50 ([6]; COLO 205, read-out: Log10 GI50 (converted)): 0.447 µM
IC (TGI) ([6]; COLO 205, read-out: Log10 TGI (converted)): 5.5 µM
GI50 ([7]; HCC-2998, read-out: Log10 GI50 (converted)): 0.0631 µM
IC (TGI) ([7]; HCC-2998, read-out: Log10 TGI (converted)): 11.5 µM
GI50 ([8]; HCT-116, read-out: Log10 GI50 (converted)): 0.0275 µM
IC (TGI) ([8]; HCT-116, read-out: Log10 TGI (converted)): 17.4 µM
GI50 ([9]; HCT-15, read-out: Log10 GI50 (converted)): 28.8 µM
IC (TGI) ([9]; HCT-15, read-out: Log10 TGI (converted)): > 100 µM
GI50 ([10]; HT-29, HT29, read-out: Log10 GI50 (converted)): 0.224 µM
IC (TGI) ([10]; HT-29, HT29, read-out: Log10 TGI (converted)): 43.7 µM
GI50 ([11]; KM12, read-out: Log10 GI50 (converted)): 47.9 µM
IC (TGI) ([11]; KM12, read-out: Log10 TGI (converted)): > 100 µM
GI50 ([12]; SNB-19, read-out: Log10 GI50 (converted)): 33.9 µM
IC (TGI) ([12]; SNB-19, read-out: Log10 TGI (converted)): 87.1 µM
GI50 ([13]; U-251, U251, read-out: Log10 GI50 (converted)): 0.0832 µM
IC (TGI) ([13]; U-251, U251, read-out: Log10 TGI (converted)): 20.9 µM
GI50 [14, 26]: 43.7 µM
IC (TGI) [14, 27]: > 100 µM
GI50 ([15]; SK-MEL-28, read-out: Log10 GI50 (converted)): > 100 µM
IC (TGI) ([15]; SK-MEL-28, read-out: Log10 TGI (converted)): > 100 µM
GI50 ([16]; OVCAR-3, read-out: Log10 GI50 (converted)): < 0.01 µM
IC (TGI) ([16]; OVCAR-3, read-out: Log10 TGI (converted)): 0.0562 µM
GI50 ([17]; SK-OV-3, read-out: Log10 GI50 (converted)): 3.24 µM
IC (TGI) ([17]; SK-OV-3, read-out: Log10 TGI (converted)): 19.5 µM
GI50 [18, 26]: 20.9 µM
IC (TGI) [18, 27]: > 100 µM
GI50 ([19]; CAKI-1, read-out: Log10 GI50 (converted)): < 0.01 µM
IC (TGI) ([19]; CAKI-1, read-out: Log10 TGI (converted)): 0.0282 µM
GI50 ([20]; TK-10, read-out: Log10 GI50 (converted)): < 0.01 µM
IC (TGI) ([20]; TK-10, read-out: Log10 TGI (converted)): 0.0372 µM
GI50 ([21]; PC-3, read-out: Log10 GI50 (converted)): 30.9 µM
IC (TGI) ([21]; PC-3, read-out: Log10 TGI (converted)): > 100 µM
GI50 [22, 26]: 12.6 µM
IC (TGI) [22, 27]: 35.5 µM
GI50 [23, 26]: 0.288 µM
IC (TGI) [23, 27]: 57.5 µM
GI50 ([24]; NCI-H522, read-out: Log10 GI50 (converted)): > 100 µM
IC (TGI) ([24]; NCI-H522, read-out: Log10 TGI): > 100 µM
GI50 ([25]; Homo sapiens, read-out: Log10 GI50, MG_MID, mean over the panel (converted)): 2.29 µM
CC50 ([25]; Homo sapiens, read-out: Log10 LC50, MG_MID, mean over the panel (converted)): 69.2 µM
Log10 TGI, MG_MID ([25]; mean over the panel): −4.62
Log10 TGI, Delta ([25]; whole panel): 2.99
Log10 TGI, Range ([25]; whole panel): 3.61
